Assay results: patent publication US20250179061A1 (SIRONAX LTD., priority 2022, published 2025)

Each molecule was assayed on HT-29 cells (assay: HT-29 necroptosis cell viability assay (TNF-α/SMAC mimetic/zVAD-FMK, CellTiter-Glo)). Conditions: Homo sapiens, HT-29, 20 h, read-out: Activity.
Assay type: cell-based
In short: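 Necroptosis was triggered by TNF-α (10 ng/ml), SMAC mimetic (6 μM) and zVAD-FMK (10 μM) in serum-free medium during 20 h compound exposure (10 concentrations, threefold steps) of HT-29 cells. IC50 from duplicate dose-responses uses CellTiter-Glo ATP luminescence as viability read-out.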
`COC(=O)c1ncc(Oc2ccc(-n3ncn(Cc4c(F)cccc4F)c3=O)cc2F)s1` [Example 105, methyl 5-(4-(4-(2,6-difluorobenzyl)-5-oxo-4,5-dihydro-1H-1,2,4-triazol-1-yl)-2-fluorophenoxy)thiazole-2-carboxylate] gave an IC50 of 100 to 1000 nM.

Same assay, conditions: Homo sapiens, HT-29, HT-29 necroptosis cell viability assay; class symbols for IC50; read-out: Activity
In the case of `Cc1nc(C2CC(C(N)=O)C2)sc1Oc1ccc(-n2ncn(Cc3c(F)cccc3F)c2=O)cc1F` (stereo not shown) [Example 113, 3-(5-(4-(4-(2,6-difluorobenzyl)-5-oxo-4,5-dihydro-1H-1,2,4-triazol-1-yl)-2-fluorophenoxy)-4-methylthiazol-2-yl)cyclobutane-1-carboxamide], the IC50 is reported as under 100 nM.
`Cc1nc(C2(O)COC2)sc1Oc1ccc(-n2nc3n(c2=O)[C@H](c2ccccc2)CC3)cc1F` [Example 114, (S)-2-(3-fluoro-4-((2-(3-hydroxyoxetan-3-yl)-4-methylthiazol-5-yl)oxy)phenyl)-5-phenyl-2,5,6,7-tetrahydro-3H-pyrrolo[2,1-c][1,2,4]triazol-3-one] gave an IC50 of under 100 nM.
Work on `Cc1nc(Oc2ccc(-n3ncn(Cc4c(F)cccc4F)c3=O)c(F)c2)n(C)c1C(N)=O` [Example 115, 2-(4-(4-(2,6-difluorobenzyl)-5-oxo-4,5-dihydro-1H-1,2,4-triazol-1-yl)-3-fluorophenoxy)-1,4-dimethyl-1H-imidazole-5-carboxamide] yielded an IC50 of 1000 to 10000 nM.

Same assay, conditions: Homo sapiens; HT-29 cells stimulated with TNF-α (10 ng/ml), SMAC mimetic (6 μM) and zVAD-FMK (10 μM); 20 hours; CellTiter-Glo ATP luminescence; geometric mean IC50 from 10 points; read-out: Activity
In the case of `CCOC1CN(c2cc(Oc3ccc(-n4ncn(Cc5c(F)cccc5F)c4=O)cc3)c(C)s2)C1` [Example 85, 4-(2,6-difluorobenzyl)-2-(4-((5-(3-ethoxyazetidin-1-yl)-2-methylthiophen-3-yl)oxy)phenyl)-2,4-dihydro-3H-1,2,4-triazol-3-one], the IC50 is reported as over 10000 nM.
In the case of `Cc1nc(C#N)sc1Oc1ccc(-n2ncn(Cc3c(F)cccc3F)c2=O)cc1Cl` [Example 86, 5-(2-chloro-4-(4-(2,6-difluorobenzyl)-5-oxo-4,5-dihydro-1H-1,2,4-triazol-1-yl)phenoxy)-4-methylthiazole-2-carbonitrile], the IC50 is reported as under 100 nM.
`Cc1nc(C#N)sc1Oc1ccc(-n2ncn(Cc3c(F)cccc3F)c2=O)cc1` [Example 87, 5-(4-(4-(2,6-difluorobenzyl)-5-oxo-4,5-dihydro-1H-1,2,4-triazol-1-yl)phenoxy)-4-methylthiazole-2-carbonitrile] gave an IC50 of under 100 nM.
`Cc1nc(C(N)=O)sc1Oc1ccc(-n2ncn(Cc3c(F)cccc3F)c2=O)cc1Cl` [Example 88, 5-(2-chloro-4-(4-(2,6-difluorobenzyl)-5-oxo-4,5-dihydro-1H-1,2,4-triazol-1-yl)phenoxy)-4-methylthiazole-2-carboxamide] was tested, and the IC50 was under 100 nM.
With `CC(=O)Nc1nc(C)c(Oc2ccc(-n3ncn(Cc4c(F)cccc4F)c3=O)cc2F)s1` [Example 89, N-(5-(4-(4-(2,6-difluorobenzyl)-5-oxo-4,5-dihydro-1H-1,2,4-triazol-1-yl)-2-fluorophenoxy)-4-methylthiazol-2-yl)acetamide] the IC50 was under 100 nM.
In the case of `Nc1ncc(Oc2ccc(-n3ncn(Cc4c(F)cccc4F)c3=O)cc2)s1` [Example 90, 2-(4-((2-aminothiazol-5-yl)oxy)phenyl)-4-(2,6-difluorobenzyl)-2,4-dihydro-3H-1,2,4-triazol-3-one], the IC50 is reported as 100 to 1000 nM.
With `Cc1nc(N)sc1Oc1ccc(-n2ncn(Cc3c(F)cccc3F)c2=O)cc1` [Example 91, 2-(4-((2-amino-4-methylthiazol-5-yl)oxy)phenyl)-4-(2,6-difluorobenzyl)-2,4-dihydro-3H-1,2,4-triazol-3-one] the IC50 was under 100 nM.
`COC(=O)c1nc(Oc2ccc(-n3ncn(Cc4c(F)cccc4F)c3=O)cc2)sc1C` [Example 92, methyl 2-(4-(4-(2,6-difluorobenzyl)-5-oxo-4,5-dihydro-1H-1,2,4-triazol-1-yl)phenoxy)-5-methylthiazole-4-carboxylate] gave an IC50 of 100 to 1000 nM.
`CCOC(=O)c1scnc1Oc1ccc(-n2ncn(Cc3c(F)cccc3F)c2=O)cc1F` [Example 93, ethyl 4-(4-(4-(2,6-difluorobenzyl)-5-oxo-4,5-dihydro-1H-1,2,4-triazol-1-yl)-2-fluorophenoxy)thiazole-5-carboxylate] showed an IC50 of 100 to 1000 nM.
Molecule `Cn1ncnc1Oc1ccc(-n2ncn(Cc3c(F)cccc3F)c2=O)cc1` [Example 94, 4-(2,6-difluorobenzyl)-2-(4-((1-methyl-1H-1,2,4-triazol-5-yl)oxy)phenyl)-2,4-dihydro-3H-1,2,4-triazol-3-one] has an IC50 of 1000 to 10000 nM.
For `Cn1ncc([N+](=O)[O-])c1Oc1ccc(-n2ncn(Cc3c(F)cccc3F)c2=O)cc1` [Example 95, 4-(2,6-difluorobenzyl)-2-(4-((1-methyl-4-nitro-1H-pyrazol-5-yl)oxy)phenyl)-2,4-dihydro-3H-1,2,4-triazol-3-one], the IC50 was 100 to 1000 nM.
`O=c1n(Cc2c(F)cccc2F)cnn1-c1ccc(Oc2nc(CO)cs2)cc1` [Example 96, 4-(2,6-difluorobenzyl)-2-(4-((4-(hydroxymethyl)thiazol-2-yl)oxy)phenyl)-2,4-dihydro-3H-1,2,4-triazol-3-one] showed an IC50 of 100 to 1000 nM.
In the case of `Cc1nc(C)c(Oc2ccc(-n3ncn(Cc4c(F)cccc4F)c3=O)cc2)s1` [Example 97, 4-(2,6-difluorobenzyl)-2-(4-((2,4-dimethylthiazol-5-yl)oxy)phenyl)-2,4-dihydro-3H-1,2,4-triazol-3-one], the IC50 is reported as under 100 nM.
`Cc1csc(COc2ccc(-n3ncn(Cc4c(F)cccc4F)c3=O)cc2)n1` [Example 98, 4-(2,6-difluorobenzyl)-2-(4-((4-methylthiazol-2-yl)methoxy)phenyl)-2,4-dihydro-3H-1,2,4-triazol-3-one] showed an IC50 of 100 to 1000 nM.
`Cc1ncc(Oc2ccc(-n3ncn(Cc4c(F)cccc4F)c3=O)cc2)s1` [Example 99, 4-(2,6-difluorobenzyl)-2-(4-((2-methylthiazol-5-yl)oxy)phenyl)-2,4-dihydro-3H-1,2,4-triazol-3-one] gave an IC50 of under 100 nM.
In the case of `Cc1nc(C(N)=O)c(Oc2ccc(-n3ncn(Cc4c(F)cccc4F)c3=O)cc2F)s1` [Example 100, 5-(4-(4-(2,6-difluorobenzyl)-5-oxo-4,5-dihydro-1H-1,2,4-triazol-1-yl)-2-fluorophenoxy)-2-methylthiazole-4-carboxamide], the IC50 is reported as 100 to 1000 nM.
For `NC(=O)c1scnc1Oc1ccc(-n2ncn(Cc3c(F)cccc3F)c2=O)cc1F` [Example 101, 4-(4-(4-(2,6-difluorobenzyl)-5-oxo-4,5-dihydro-1H-1,2,4-triazol-1-yl)-2-fluorophenoxy)thiazole-5-carboxamide], the IC50 was 100 to 1000 nM.
`Cc1nc(C(N)=O)cn1Cc1ccc(-n2nc3n(c2=O)C(c2ccccc2)CC3)cc1F` (stereo not shown) [Example 102, 1-(2-fluoro-4-(3-oxo-5-phenyl-6,7-dihydro-3H-pyrrolo[2,1-c][1,2,4]triazol-2(5H)-yl)benzyl)-2-methyl-1H-imidazole-4-carboxamide] was tested, and the IC50 was under 100 nM.
For `Cc1nc(C(N)=O)cn1Cc1ccc(-n2ncn(Cc3c(F)cccc3F)c2=O)cc1F` [Example 103, 1-(4-(4-(2,6-difluorobenzyl)-5-oxo-4,5-dihydro-1H-1,2,4-triazol-1-yl)-2-fluorobenzyl)-2-methyl-1H-imidazole-4-carboxamide], the IC50 was 100 to 1000 nM.
Work on `Cc1ncc(C(N)=O)n1Cc1ccc(-n2ncn(Cc3c(F)cccc3F)c2=O)cc1F` [Example 104, 1-(4-(4-(2,6-difluorobenzyl)-5-oxo-4,5-dihydro-1H-1,2,4-triazol-1-yl)-2-fluorobenzyl)-2-methyl-1H-imidazole-5-carboxamide] yielded an IC50 of under 100 nM.
`COC(=O)c1nc(C)c(Oc2ccc(-n3ncn(Cc4c(F)cccc4C#N)c3=O)cc2F)s1` [Example 106, methyl 5-(4-(4-(2-cyano-6-fluorobenzyl)-5-oxo-4,5-dihydro-1H-1,2,4-triazol-1-yl)-2-fluorophenoxy)-4-methylthiazole-2-carboxylate] showed an IC50 of under 100 nM.
Work on `COC(=O)c1nc(C)c(Oc2ccc(-n3ncn(Cc4ccccc4F)c3=O)cc2F)s1` [Example 107, methyl 5-(2-fluoro-4-(4-(2-fluorobenzyl)-5-oxo-4,5-dihydro-1H-1,2,4-triazol-1-yl)phenoxy)-4-methylthiazole-2-carboxylate] yielded an IC50 of under 100 nM.
With `COC(=O)c1nc(C)c(Oc2ccc(-n3ncn(Cc4cc(F)ccc4F)c3=O)cc2F)s1` [Example 108, methyl 5-(4-(4-(2,5-difluorobenzyl)-5-oxo-4,5-dihydro-1H-1,2,4-triazol-1-yl)-2-fluorophenoxy)-4-methylthiazole-2-carboxylate] the IC50 was under 100 nM.
In the case of `Cc1nc(C2(F)CC(N)C2)sc1Oc1ccc(-n2ncn(Cc3c(F)cccc3F)c2=O)cc1F` (stereo not shown) [Example 109, 2-(4-((2-(3-amino-1-fluorocyclobutyl)-4-methylthiazol-5-yl)oxy)-3-fluorophenyl)-4-(2,6-difluorobenzyl)-2,4-dihydro-3H-1,2,4-triazol-3-one], the IC50 is reported as under 100 nM.
Molecule `Cc1nc(C2(F)CC(O)C2)sc1Oc1ccc(-n2ncn(Cc3c(F)cccc3F)c2=O)cc1F` (stereo not shown) [Example 110, 4-(2,6-difluorobenzyl)-2-(3-fluoro-4-((2-(1-fluoro-3-hydroxycyclobutyl)-4-methylthiazol-5-yl)oxy)phenyl)-2,4-dihydro-3H-1,2,4-triazol-3-one] has an IC50 of under 100 nM.
For `Cc1nc(C2(F)CC(OCc3ccccc3)C2)sc1Oc1ccc(-n2ncn(Cc3c(F)cccc3F)c2=O)cc1F` (stereo not shown) [Example 111, 2-(4-((2-(3-(benzyloxy)-1-fluorocyclobutyl)-4-methylthiazol-5-yl)oxy)-3-fluorophenyl)-4-(2,6-difluorobenzyl)-2,4-dihydro-3H-1,2,4-triazol-3-one], the IC50 was under 100 nM.
Molecule `Cc1nc(C2(O)CC(OCc3ccccc3)C2)sc1Oc1ccc(-n2ncn(Cc3c(F)cccc3F)c2=O)cc1F` (stereo not shown) [Example 112, 2-(4-((2-(3-(benzyloxy)-1-hydroxycyclobutyl)-4-methylthiazol-5-yl)oxy)-3-fluorophenyl)-4-(2,6-difluorobenzyl)-2,4-dihydro-3H-1,2,4-triazol-3-one] has an IC50 of 100 to 1000 nM.
